Data from patent US8901295B2 (Institut National de la Sante et de la Recherche Medicale …, priority 2009, dated 2014).
Where two headings read alike, the source gives them in different places.

Tests used:
[1] = molecular target: Cyclophilin B (CypB) (Homo sapiens (Human), UniProt P23284); test: Cyclophilin PPIase enzymatic assay (chymotrypsin coupled), CypB; type: biochemical; details: for Inhibition (%): activity test at 100 μM on CypB; for IC50: CypB
Procedure: (§1) Cyclophilin A, B protein carrying a hexahistidine tag (His-Tag) at the C-terminus, were expressed in Escherichia coli and purified. Briefly, cultures of C41(DE3) cells were grown at 37° C. for ˜1 h until the culture reached an optical density of 0.6 at 600 nm, and induced with 1 mM isopropyl β-D-thiogalactoside for 4 h at 37° C. or overnight at 22° C. for cylophilin A and cyclophilin B, respectively. Cell pellets (1 L) were resuspended in a lysis buffer (20 mM NaH2PO4 (pH 7.8), 300 mM NaCl, 7 mM β-mercaptoethanol, 1 mg/ml lysozyme, 0.1 U/μl Desoxyribonuclease and complete protease inhibitor tablets (Roche)). The sonicated cell lysates were clarified by centrifugation at 10 000 g for 45 min at 4° C., chromatographed on a Ni-NTA column and washed with buffer: (20 mM NaH2PO4 (pH7.8), 300 mM NaCl, 50 mM imidazole, 7 mM β-mercaptoethanol, 10% glycerol). The bound protein was eluted in 1 ml fractions with buffer: (20 mM NaH2PO4 (pH7.8), 300 mM NaCl, 250 mM imidazole, 7 mM β-mercaptoethanol, 10% glycerol) and monitored by the Bradford colorimetric assay. The purity of each cyclophilin was determined by Coomassie-stained SDS-PAGE analysis.
(§2) The reaction was initiated by adding 20 μL of 3.2 mM peptide substrate (Suc-Ala-Ala-cis-Pro-Phe-pNA) in LiCl/TFE solution with rapid inversion. […] The final concentration of LiCl in the assay was 20 mM; TFE was present at a concentration of 4% (v/v). Absorbance readings were collected every 1 s by spectrophotometer. The inhibition assays of compounds were performed in the same manner as mentioned above. A 5 μL aliquot of the compounds in DMSO was added to the cyclophilin solution in the assay buffer. The assay was started by the addition of the substrate. Cyclosporine A was used as control in all measurement. The percentage inhibition of cyclophilin PPiase activity were calculated from slopes and values obtained represent an average of at least two independent measurements.

[2] = molecular target: Cyclophilin D (CypD) (Homo sapiens, UniProt P30405, K175I); test: Cyclophilin PPIase enzymatic assay (chymotrypsin coupled), CypD; type: biochemical
Procedure: The protein was expressed in E. coli strain BL21(DE3). Bacteria were grown in LB medium at 37° C. and induced during 2 h with isopropyl-β-D-thiogalactopyranoside (IPTG) around OD 0.8. Cells were lysed by sonication in a buffer consisting of 50 mM Tris at pH 7.5, 2 mM EDTA and 2 mM β-mercaptoethanol (buffer A). The lysate was centrifuged at 40000 g for 30 min. The supernatant was loaded on a Q-Sepharose and S-Sepharose columns in series equilibrated with buffer A. The S-Sepharose column was washed with equilibrium buffer and bound proteins were eluted with a linear gradient from 0 to 1M NaCl.
as §2

[3] = molecular target: Cyclophilin A (CypA) (Homo sapiens (Human), UniProt P62937); test: Cyclophilin PPIase enzymatic assay (chymotrypsin coupled), CypA; type: biochemical; details: for IC50: CypA
Procedure: as §1, §2

[4] = system: HCV genotype 1b bicistronic replicon in Huh7 cells; test: Antiviral activity in the replicon model; type: cell-based; details: Hepatitis C virus, Huh-7, 72 h
Procedure: HCV replicon harboring cells were seeded at a low density of 5000 cells per well in 96-well plates. The cells were treated with increasing concentrations of the tested compounds in Dulbecco modified Eagle medium containing 10% fetal bovine serum and 1% DMSO without G418 and cultured for 3 days. Total RNA was extracted using the RNeasy 96 kit (Qiagen). […] HCV RNA levels were measured by means of […]. The results were normalized to GAPDH gene. Each data point represents the average of at least three replicates in cell culture. HCV RNA level reductions after treatment were assessed by comparing the level of HCV RNA in compound-treated cells to that of control cells treated with 1% DMSO.

[5] = Acute toxicity in mice; type: in vivo; details: female mice, 1, 10, 50 and 150 mg/kg, one intraperitonal injection
Procedure: The acute toxicity of F684 was evaluated in mice. In this study, female mice (n=3/group) were administered with the negative control (PBS) or F684 (1 mg/kg, 10 mg/kg, 50 mg/kg and 150 mg/kg of body weight dissolved in PBS), one time by intraperitonal injection. At the time of injection, animals were approximately 5 month old and body weights ranged from 27 to 33 g.

[6] = activity test at 100 μM on CypA, read-out: Inhibition (%)
[7] = HCV genotype 1b replicon, Huh7 cells, 3 days, HCV RNA, read-out: EC50 replicon

Chain of Cyclophilin B (CypB) (P23284 34-216): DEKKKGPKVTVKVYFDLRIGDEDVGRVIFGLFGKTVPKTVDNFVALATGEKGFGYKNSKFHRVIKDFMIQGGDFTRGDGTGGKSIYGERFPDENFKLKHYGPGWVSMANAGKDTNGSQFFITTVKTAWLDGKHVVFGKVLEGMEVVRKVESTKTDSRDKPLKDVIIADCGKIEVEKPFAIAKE
Chain of Cyclophilin D (CypD) (P30405 30-207 K175I limits assumed): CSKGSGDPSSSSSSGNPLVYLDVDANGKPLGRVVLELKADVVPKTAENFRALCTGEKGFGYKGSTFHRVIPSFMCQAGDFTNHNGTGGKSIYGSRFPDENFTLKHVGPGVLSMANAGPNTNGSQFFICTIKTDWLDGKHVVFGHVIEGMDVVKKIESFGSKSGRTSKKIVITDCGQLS
Chain of Cyclophilin A (CypA) (P62937 whole entry): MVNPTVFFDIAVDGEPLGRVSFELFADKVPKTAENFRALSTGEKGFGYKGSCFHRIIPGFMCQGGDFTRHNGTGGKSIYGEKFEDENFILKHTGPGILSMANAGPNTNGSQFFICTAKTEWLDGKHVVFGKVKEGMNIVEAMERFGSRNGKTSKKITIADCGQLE

2-(3-(3-acetamidobenzyl)ureido)acetate [Compound F566]
Inhibition (%) [1]: 26.5% | Inhibition (%) ([2]; activity test at 100 μM on CypD): 22.7%

CCOC(=O)CNC(=O)NCc1ccc(OC)cc1 [Compound F429, ethyl 2-(3-(4-methoxybenzyl)ureido)acetate]
inhibition at 1000 µM [2]: 42.1%

CCOC(=O)CNC(=O)NCC1CCNCC1 [Compound F509, ethyl 2-(3-(piperidin-4-ylmethyl)ureido)acetate]
inhibition at 100 µM [2]: 18.3%

CCOC(=O)CNC(=O)NCc1cccc(F)c1 [Compound F511, ethyl 2-(3-(3-fluorobenzyl)ureido)acetate]
inhibition at 100 µM [2]: 12.9%

CCOC(=O)CNC(=O)NCc1cccc(OC)c1 [Compound F512, ethyl 2-(3-(3-methoxybenzyl)ureido)acetate]
inhibition at 100 µM [1]: 16.6% | inhibition at 100 µM [2]: 26.5%

CCOC(=O)CNC(=O)NCc1ccc(O)c(O)c1 [Compound F548, ethyl 2-(3-(3,4-dihydroxybenzyl)ureido)acetate]
inhibition at 100 µM [1]: 20.8% | inhibition at 100 µM [2]: 25.5%

CCOC(=O)CNC(=O)NCc1cccc(N)c1 [Compound F549, ethyl 2-(3-(3-aminobenzyl)ureido)acetate]
inhibition at 100 µM [3, 6]: 14.8% | inhibition at 100 µM [1]: 48.9% | inhibition at 100 µM [2]: 24.5%

Nc1ccc(CNC(=O)NCC(=O)N2CCOC(CN3C(=O)c4ccccc4C3=O)C2)cc1 (stereo not drawn) [Compound F554, 1-(4-aminobenzyl)-3-(2-(2-((1,3-dioxoisoindolin-2-yl)methyl)morpholino)-2-oxoethyl)urea]
inhibition at 100 µM [3, 6]: 67.2% | inhibition at 100 µM [1]: 70.9% | IC50 [1]: 24.6 µM | inhibition at 100 µM [2]: 20.9%

COc1ccc(N(C)C(=O)CNC(=O)NCc2ccc(N)cc2)cc1 [Compound F555, 2-(3-(4-aminobenzyl)ureido)-N-4-methoxyphenyl-N-methylacetamide]
inhibition at 100 µM [3, 6]: 65.1% | inhibition at 100 µM [2]: 26.1%

CN(C(=O)CNC(=O)NCc1ccc(N)cc1)c1ccccc1 [Compound F557, 2-(3-(4-aminobenzyl)ureido)-N-phenyl-N-methylacetamide]
inhibition at 100 µM [3, 6]: 63.4% | inhibition at 100 µM [2]: 42.9%

CCN(O)C(=O)CNC(=O)NCc1ccc(N)nc1 [Compound F606, 2-(3-((6-aminopyridin-3-yl)methyl)ureido)-N-hydroxy-N-ethylacetamide]
inhibition at 100 µM [3, 6]: 18.9% | inhibition at 100 µM [1]: 17.3%

CCN(OCc1ccccc1)C(=O)CNC(=O)NCc1ccc(N)cc1 [Compound F607]
IC50 [3]: 9 µM | IC50 [1]: 4.8 µM | Inhibition (%) [1]: 95.3% | IC50 ([2]; CypD, read-out: CypD IC50): 30 µM

Nc1ccc(CNC(=O)Nc2cnc3sccn3c2=O)cc1 [Compound F608, 1-(4-aminobenzyl)-3-(5-oxo-5H-thiazolo[3,2-a]pyrimidin-6-yl)urea]
inhibition at 100 µM [3, 6]: 26.3% | inhibition at 100 µM [1]: 38.7%

COc1ccccc1C1CCCN1C(=O)CNC(=O)NCc1ccc(N)cc1 (stereo not drawn) [Compound F609, 1-(4-aminobenzyl)-3-(2-(2-(2-methoxyphenyl)pyrrolidin-1-yl)-2-oxoethyl)urea]
inhibition at 100 µM [3]: 100% | IC50 [3]: 2.8 µM | inhibition at 100 µM [1]: 101% | IC50 [1]: 1.2 µM | IC50 [2]: 11.4 µM | EC50 [4, 7]: 20 µM

CCOC(=O)C(Cc1cccc(OCc2ccccc2)c1)NC(=O)NCc1ccc(N)cc1 (stereo not drawn) [Compound F611, ethyl 2-(3-(4-aminobenzyl)ureido)-3-(3-(benzyloxy)phenyl)propanoate]
inhibition at 100 µM [3, 6]: 72.8% | inhibition at 100 µM [1]: 73.3%

CCOC(=O)C(Cc1cccc(O)c1)NC(=O)NCc1ccc(N)cc1 (stereo not drawn) [Compound F612, ethyl 2-(3-(4-aminobenzyl)ureido)-3-(3-hydroxyphenyl)propanoate]
inhibition at 100 µM [3, 6]: 26.3% | inhibition at 100 µM [1]: 26.7%

Nc1ccc(CNC(=O)NCC(=O)N2CCCC2c2cccc3ccccc23)cc1 (stereo not drawn) [Compound F671, 1-(4-aminobenzyl)-3-(2-(2-(naphthalen-1-yl)pyrrolidin-1-yl)-2-oxoethyl)urea]
IC50 [3]: 1.5 µM | IC50 [2]: 1.4 µM | EC50 [4, 7]: 4.3 µM

Nc1ccc(CNC(=O)NCC(=O)N2CCCC2c2ccccc2Cl)cc1 (stereo not drawn) [Compound F673, 1-(4-aminobenzyl)-3-(2-(2-(2-chlorophenyl)pyrrolidin-1-yl)-2-oxoethyl)urea]
IC50 [3]: 3.4 µM | IC50 [2]: 6.2 µM

CSc1ccccc1C1CCCN1C(=O)CNC(=O)NCc1ccc(N)cc1 (stereo not drawn) [Compound F684, 1-(4-aminobenzyl)-3-(2-(2-(2-(methylthio)phenyl)pyrrolidin-1-yl)-2-oxoethyl)urea]
IC50 [3]: 0.37 µM | IC50 [1]: 0.65 µM | IC50 [2]: 0.64 µM | EC50 ([4]; read-out: EC50 replicon (μM)): 0.8 µM | acute toxicity [5]: not acutely toxic | body weights, feed consumption, clinical observations or gross organ necropsy vs vehicle control [5]: No differences | survival [5]: All animals survived to scheduled sacrifice

CSc1ccccc1C1CCCN1C(=O)C(CC(C)C)NC(=O)NCc1ccc(N)cc1 (stereo not drawn) [Compound F712, 1-(4-aminobenzyl)-3-(4-methyl-1-(2-(2-(methylthio)phenyl)pyrrolidin-1-yl)-1-oxopentan-2-yl)urea]
IC50 [3]: 3.3 µM | IC50 [2]: 3 µM

CSc1ccccc1C1CCCN1C(=O)C(C)NC(=O)NCc1ccc(N)cc1 (stereo not drawn) [Compound F714, 1-(4-aminobenzyl)-3-(1-(2-(2-(methylthio)phenyl)pyrrolidin-1-yl)-1-oxopropan-2-yl)urea]
IC50 [3]: 3.1 µM | IC50 [2]: 1.1 µM
